Laboratory results as given in patent publication US8178579B2, “Dioxanes and uses thereof” (President and Fellows of Harvard College, priority 2001, dated 2012).

Target: T1, HDAC6F H216A mutant (Homo sapiens, UniProt Q9UBN7, H216A)
T1 construct: made in house; host or cells: TAg Jurkat cells, transient transfection, anti-FLAG M2 immunoprecipitation
T1 sequence (Q9UBN7 1-1215 H216A): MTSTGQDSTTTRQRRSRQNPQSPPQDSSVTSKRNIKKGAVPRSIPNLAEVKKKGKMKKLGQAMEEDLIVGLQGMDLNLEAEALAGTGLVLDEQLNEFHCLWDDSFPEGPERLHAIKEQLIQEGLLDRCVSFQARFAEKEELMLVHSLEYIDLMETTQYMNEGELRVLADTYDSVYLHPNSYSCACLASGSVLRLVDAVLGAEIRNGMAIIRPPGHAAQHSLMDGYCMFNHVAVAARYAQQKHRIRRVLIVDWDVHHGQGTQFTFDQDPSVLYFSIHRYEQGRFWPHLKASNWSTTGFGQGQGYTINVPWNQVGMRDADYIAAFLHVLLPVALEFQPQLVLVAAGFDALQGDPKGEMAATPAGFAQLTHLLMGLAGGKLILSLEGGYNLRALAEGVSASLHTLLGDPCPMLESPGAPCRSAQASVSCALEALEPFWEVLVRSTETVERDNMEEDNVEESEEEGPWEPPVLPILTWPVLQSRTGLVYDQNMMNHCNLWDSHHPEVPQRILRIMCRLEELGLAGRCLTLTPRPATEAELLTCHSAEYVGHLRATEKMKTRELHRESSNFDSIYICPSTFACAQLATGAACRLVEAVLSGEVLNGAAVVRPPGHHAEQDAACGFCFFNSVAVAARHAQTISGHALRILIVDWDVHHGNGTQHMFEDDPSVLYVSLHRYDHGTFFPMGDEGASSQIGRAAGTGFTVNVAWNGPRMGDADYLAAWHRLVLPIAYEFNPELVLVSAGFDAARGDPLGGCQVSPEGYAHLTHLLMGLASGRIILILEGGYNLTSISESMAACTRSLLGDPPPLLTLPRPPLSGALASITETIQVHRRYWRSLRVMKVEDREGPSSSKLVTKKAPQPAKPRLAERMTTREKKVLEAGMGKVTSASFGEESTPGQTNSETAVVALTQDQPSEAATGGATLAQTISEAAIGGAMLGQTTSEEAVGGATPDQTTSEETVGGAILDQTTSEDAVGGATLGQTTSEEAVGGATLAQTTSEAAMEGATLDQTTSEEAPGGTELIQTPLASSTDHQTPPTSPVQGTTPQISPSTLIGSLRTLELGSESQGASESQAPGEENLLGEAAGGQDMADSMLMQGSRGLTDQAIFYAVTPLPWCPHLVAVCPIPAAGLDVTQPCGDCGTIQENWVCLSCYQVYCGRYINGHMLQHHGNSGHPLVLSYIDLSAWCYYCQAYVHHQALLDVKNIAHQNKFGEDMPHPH
Experiment: in vitro tubulin deacetylase (TDAC) assay, HDAC6F H216A mutant
Format: biochemical
Details: acetylated tubulin as substrate
Procedure: FLAG-tagged HDAC pBJ5 constructs were transiently transfected by electroporation with 5 μg DNA for expression of recombinant proteins (C. M. Grozinger, C. A. Hassig and S. L. Schreiber, Proc. Natl. Acad. Sci. USA, 27, 4868 (1999); and C. A. Hassig et al., Proc. Natl. Acad. Sci. USA 95, 3519 (1998)]. Cells were mock transfected without DNA or with a non-FLAG-tagged pCMV-LacZ construct as a negative control. Forty-eight hours after transfection recombinant proteins were immunoprecipitated using anti-FLAG M2 agarose affinity gel beads as described [C. A. Hassig et al., Proc. Natl. Acad. Sci. USA 95, 3519 (1998)]. Western blotting using anti-acetylated α-tubulin (1:1000) anti-tubulin (1:1000), and anti-acetylated (K9, K14) histone H3 (1:1000) antibodies was performed using standard methods (K. M. Koeller et al., Chemistry & Biology, 10 (5) (2003) pp. 397-410). […]
[^3H]Acetate-incorporated histones were isolated from butyrate-treated HeLa cells as described [J. Taunton, C. […] Immunoprecipitates were incubated with acetylated histones and HDAC activity determined by scintillation counting as described [J. Taunton, C. […] After centrifugation, the supernatant (diluted to 0.4 μg tubulin) and α-FLAG M2 agarose affinity gel beads were analyzed by western blotting with an anti-FLAG M2 antibody (1:1750) to ensure equal protein levels.

| Compound | inhibition of TDAC activity of HDAC6F H216A mutant |
| --- | --- |
| CC(/C=C/C(=O)NO)=C\[C@@H](C)C(=O)c1ccc(N(C)C)cc1 [TSA, trichostatin A, reference compound] | exhibited TDAC activity that was inhibited by tubacin and TSA |
| O=C(CCCCCCC(=O)Nc1ccc([C@@H]2OC(c3ccc(CO)cc3)C[C@H](CSc3nc(-c4ccccc4)c(-c4ccccc4)o3)O2)cc1)NO (some centres unmarked) [tubacin] | exhibited TDAC activity that was inhibited by tubacin and TSA |
